Measured values: the supplement of paper PMC10307832

How the values were obtained:
Test in all cases: relative viability (nuclei count vs DMSO), 5 days (fraction); higher = more cells survive
NCI-H441 = tested on: NCI-H441
Method in brief: (§1)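 Relative viability equals treated-well nuclei counts divided by vehicle-well nuclei counts. Counts came from 4× images of lung cancer cell lines grown in 1536-well plates for 5 days after pin-tool dosing on the day after seeding. Dosing used one drug alone or a fixed anchor-drug dose plus five library-drug doses (not always all listed) in √10 steps, and values are medians of duplicate plates.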

NCI-H1975 = tested on: NCI-H1975
Method in brief: as §1

HCC-15 = tested on: HCC-15
Method in brief: as §1

NCI-H1792 = tested on: NCI-H1792
Method in brief: as §1

A-427 = tested on: A-427
Method in brief: as §1

NCI-H650 = tested on: NCI-H650
Method in brief: as §1

HCC-44 = tested on: HCC-44
Method in brief: as §1

NCI-H838 = tested on: NCI-H838
Method in brief: as §1

NCI-H1650 = tested on: NCI-H1650
Method in brief: as §1

EKVX = tested on: EKVX
Method in brief: as §1

HCC-827 = tested on: HCC-827
Method in brief: as §1

HARA = tested on: HARA
Method in brief: as §1

COR-L23 = tested on: COR-L23
Method in brief: as §1

201T = tested on: 201T
Method in brief: as §1

NCI-H596 = tested on: NCI-H596
Method in brief: as §1

NCI-H23 = tested on: NCI-H23
Method in brief: as §1

NCI-H1437 = tested on: NCI-H1437
Method in brief: as §1

BEN = tested on: BEN
Method in brief: as §1

Nc1ccn([C@@H]2O[C@H](CO)[C@@H](O)[C@@H]2O)c(=O)n1 [Cytarabine] + CC(C)C[C@H](NC(=O)[C@H](Cc1ccccc1)NC(=O)c1cnccn1)B(O)O [Bortezomib] (partner 0.002 µM)
relative viability (NCI-H441; first compound 0.005 µM): 0.612 | relative viability (NCI-H441; first compound 0.01581 µM): 0.376 | relative viability (NCI-H441; first compound 0.05 µM): 0.483 | relative viability (NCI-H441; first compound 0.1581 µM): 0.283 | relative viability (NCI-H441; first compound 0.5 µM): 0.162 | relative viability (NCI-H1975; first compound 0.005 µM): 0.293 | relative viability (NCI-H1975; first compound 0.01581 µM): 0.323 | relative viability (NCI-H1975; first compound 0.05 µM): 0.276 | relative viability (NCI-H1975; first compound 0.1581 µM): 0.23 | relative viability (NCI-H1975; first compound 0.5 µM): 0.213 | relative viability (HCC-15; first compound 0.005 µM): 0.795 | relative viability (HCC-15; first compound 0.01581 µM): 1.03 | relative viability (HCC-15; first compound 0.05 µM): 1.16 | relative viability (HCC-15; first compound 0.1581 µM): 0.883 | relative viability (HCC-15; first compound 0.5 µM): 0.668 | relative viability (NCI-H1792; first compound 0.005 µM): 0.925 | relative viability (NCI-H1792; first compound 0.01581 µM): 0.93 | relative viability (NCI-H1792; first compound 0.05 µM): 0.795 | relative viability (NCI-H1792; first compound 0.1581 µM): 0.565 | relative viability (NCI-H1792; first compound 0.5 µM): 0.55 | relative viability (A-427; first compound 0.005 µM): 0.752 | relative viability (A-427; first compound 0.01581 µM): 0.46 | relative viability (A-427; first compound 0.05 µM): 0.276 | relative viability (A-427; first compound 0.1581 µM): 0.171 | relative viability (A-427; first compound 0.5 µM): 0.166 | relative viability (NCI-H650; first compound 0.005 µM): 0.606 | relative viability (NCI-H650; first compound 0.01581 µM): 0.486 | relative viability (NCI-H650; first compound 0.05 µM): 0.349 | relative viability (NCI-H650; first compound 0.1581 µM): 0.223 | relative viability (NCI-H650; first compound 0.5 µM): 0.209 | relative viability (HCC-44; first compound 0.005 µM): 0.828 | relative viability (HCC-44; first compound 0.01581 µM): 0.895 | relative viability (HCC-44; first compound 0.05 µM): 0.793 | relative viability (HCC-44; first compound 0.1581 µM): 0.425 | relative viability (HCC-44; first compound 0.5 µM): 0.405 | relative viability (NCI-H838; first compound 0.005 µM): 0.802 | relative viability (NCI-H838; first compound 0.01581 µM): 0.615 | relative viability (NCI-H838; first compound 0.05 µM): 0.506 | relative viability (NCI-H838; first compound 0.1581 µM): 0.242 | relative viability (NCI-H838; first compound 0.5 µM): 0.21 | relative viability (NCI-H1650; first compound 0.005 µM): 0.215 | relative viability (NCI-H1650; first compound 0.01581 µM): 0.166 | relative viability (NCI-H1650; first compound 0.05 µM): 0.172 | relative viability (NCI-H1650; first compound 0.1581 µM): 0.161 | relative viability (NCI-H1650; first compound 0.5 µM): 0.154 | relative viability (EKVX; first compound 0.005 µM): 1.22 | relative viability (EKVX; first compound 0.01581 µM): 0.947 | relative viability (EKVX; first compound 0.05 µM): 0.801 | relative viability (EKVX; first compound 0.1581 µM): 0.361 | relative viability (EKVX; first compound 0.5 µM): 0.178 | relative viability (HCC-827; first compound 0.005 µM): 0.996 | relative viability (HCC-827; first compound 0.01581 µM): 0.674 | relative viability (HCC-827; first compound 0.05 µM): 0.474 | relative viability (HCC-827; first compound 0.1581 µM): 0.459 | relative viability (HCC-827; first compound 0.5 µM): 0.329 | relative viability (HARA; first compound 0.005 µM): 0.725 | relative viability (HARA; first compound 0.01581 µM): 0.642 | relative viability (HARA; first compound 0.05 µM): 0.652 | relative viability (HARA; first compound 0.1581 µM): 0.179 | relative viability (HARA; first compound 0.5 µM): 0.139 | relative viability (COR-L23; first compound 0.005 µM): 1.01 | relative viability (COR-L23; first compound 0.01581 µM): 0.945 | relative viability (COR-L23; first compound 0.05 µM): 0.913 | relative viability (COR-L23; first compound 0.1581 µM): 0.274 | relative viability (COR-L23; first compound 0.5 µM): 0.165 | relative viability (201T; first compound 0.005 µM): 1.07 | relative viability (201T; first compound 0.01581 µM): 1.11 | relative viability (201T; first compound 0.05 µM): 0.866 | relative viability (201T; first compound 0.1581 µM): 1.01 | relative viability (201T; first compound 0.5 µM): 1 | relative viability (NCI-H596; first compound 0.005 µM): 0.788 | relative viability (NCI-H596; first compound 0.01581 µM): 0.853 | relative viability (NCI-H596; first compound 0.05 µM): 0.904 | relative viability (NCI-H596; first compound 0.1581 µM): 0.62 | relative viability (NCI-H596; first compound 0.5 µM): 0.704 | relative viability (NCI-H23; first compound 0.005 µM): 0.743 | relative viability (NCI-H23; first compound 0.01581 µM): 0.656 | relative viability (NCI-H23; first compound 0.05 µM): 0.559 | relative viability (NCI-H23; first compound 0.1581 µM): 0.24 | relative viability (NCI-H23; first compound 0.5 µM): 0.214 | relative viability (NCI-H1437; first compound 0.005 µM): 0.334 | relative viability (NCI-H1437; first compound 0.01581 µM): 0.287 | relative viability (NCI-H1437; first compound 0.05 µM): 0.243 | relative viability (NCI-H1437; first compound 0.1581 µM): 0.18 | relative viability (NCI-H1437; first compound 0.5 µM): 0.16 | relative viability (BEN; first compound 0.005 µM): 0.667 | relative viability (BEN; first compound 0.01581 µM): 0.742 | relative viability (BEN; first compound 0.05 µM): 0.413 | relative viability (BEN; first compound 0.1581 µM): 0.282 | relative viability (BEN; first compound 0.5 µM): 0.233
